For one experiment, the target named is T1, human Bak protein (WT) (Homo sapiens, UniProt Q16611).
T1 construct: His6; made in house; host or cells: Escherichia coli BL21 DE3
In words: Isothermal titration calorimetry (ITC). The conditions noted are these: 25 °C, one-site binding. The method, then:
The binding affinity of BKA-073 with Bak protein was examined by isothermal titration calorimetry (ITC) assay as described, [28]. ITC assay was carried out in the auto-iTC200 instrument (MicroCal, GE) at 25 °C. Purified recombinant human or mouse Bak protein was loaded into a 96 Deepwell PP plate. BKA-073 compound was then titrated stepwise into the protein for a total of 16 injections. Reference power and initial delay were set as 5 µCal/sec and 60s, respectively. A string speed of 750 rpm was used for the ITC measurements. The binding constant (Kd) value was determined by fitting the titration curve to a one-site binding mode, using the Origin software provided by the manufacturer.
To confirm the binding of BKA-073 with Bak, we first conducted a competitive fluorescence polarization (FP) assay using purified human Bak protein, fluorescent Bak BH3 domain peptide, and BKA-073 as described, [37]-[40]. […] There are multiple amino acid differences in the BH3 domains between Bak and other Bcl2 family members, which helps to explain why BKA-073 only binds to Bak but not to other Bcl2 family members (i.e. Bax, Bcl2, Bcl-XL, Bcl-w and Mcl-1). In addition to the FP assay, isothermal titration calorimetry (ITC) was also employed to measure Bak/BKA-073 binding. […] In addition to human Bak/BKA-073 binding, we measured mouse Bak/BKA-073 binding using ITC.
In general terms: In ITC the heat of successive injections is recorded.

Experiment [1] deals with mitochondria isolated from A549 cells. The experiment can be described thus: Cyt c release from isolated mitochondria. It counts as biochemical, human. The conditions noted are these: 1 μM, 30 min, 30 °C. The method, then:
Figure 3 Bak is required for BKA-073 induction of mitochondrial priming, Cyt c release and apoptotic cell death. (A) Levels of Bak and Bax were analyzed by Western blot in parental, Bak ^-/-, Bax ^-/- or Bax/Bak double-knockout (DKO) A549 cells. (B-C) Parental, Bak ^-/-, Bax ^-/- or DKO A549 cells were treated with BKA-073 (1μM) for 16h or 72h, followed by analysis of dynamic BH3 profiling (B) or apoptotic cell death (C), respectively. Data represent the mean ± SD, n = 3 per group. ***P < 0.001, by 2-tailed t test. (D) Parental, Bak ^-/-, Bax ^-/- or DKO A549 cells were treated with BKA-073 (1μM) for 24 h. Mitochondrial and cytosolic fractions were isolated. Levels of Cyt c in these two fractions were analyzed by western blot. (E) Mitochondria were isolated from parental, Bak ^-/-, Bax ^-/- or DKO A549 cells. The isolated mitochondria were then treated with BKA-073 (1μM) in mitochondrial buffer for 30 min at 30 °C. After centrifugation, Cyt c in supernatant fraction (i.e. Cyt c release) and Cyt c in mitochondrial pellet were analyzed by western blot.
To further test whether Bak is required for BKA-073 induction of Cyt c release, A549 parental, Bak^-/-, Bax^-/- and DKO cells were treated with BKA-073 (1 μM) for 24h, followed by analysis of Cyt c release from mitochondria. […] After centrifugation at 13000 g for 5 min, Cyt c in the supernatant (i.e., Cyt c release) was analyzed by Western blot.

The subject of another experiment is Bak-/- A549 xenografts. In words: Bak-/- A549 xenografts, tumor growth. The format is in vivo, Nu/Nu nude mice. The conditions noted are these: 12.5mg/kg/d i.p., 28 days. The method, then: Six-week-old female Nu/Nu nude mice were purchased from Envigo (Indianapolis, IN) and housed under pathogen-free conditions in microisolator cages. The animal propagation protocol was approved by the Emory Institutional Animal Care and Use Committee (IACUC) and the Emory Animal Ethics Committee. 3×10^6 lung cancer cells were injected into subcutaneous tissue in the flank region of nude mice. The tumors were allowed to grow to an average volume of 150~200 mm^3 prior to initiation of therapy as previously described, [29]. Patient-derived xenografts (PDXs, TKO-002 and TKO-005) were established as part of an IRB-approved phase II co-clinical trial of arsenic trioxide in patients with relapsed SCLC who had failed standard platinum-based chemotherapy. Tumor samples were obtained by image-guided biopsy and were directly implanted into Nu/Nu nude mice without intervening propagation in plastic culture plates. Direct serial propagation of growing tumor occurred for up to 5 generations. The animal propagation protocol was approved by the Emory IACUC and the Emory Animal Ethics Committee. Mice with SCLC and NSCLC xenografts or PDXs were treated with BKA-073 intraperitoneally (i.p.) or venetoclax orally as indicated. During treatment, tumor volume (V) was measured by caliper measurements once every two days as described previously. Mice were euthanized by CO2 inhalation at the end of treatment. […]

Each structure is given as a SMILES string.

T1 sequence (Q16611 1-186 limits assumed): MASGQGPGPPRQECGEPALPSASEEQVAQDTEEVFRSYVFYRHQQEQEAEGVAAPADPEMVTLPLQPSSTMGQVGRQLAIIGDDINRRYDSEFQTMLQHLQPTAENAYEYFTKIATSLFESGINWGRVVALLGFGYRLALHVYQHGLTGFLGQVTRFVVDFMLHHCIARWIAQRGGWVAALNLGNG

As usually defined, the Kd is the concentration at which binding is half-saturated. Read a low Kd as higher affinity. Consider `COc1ccc2nc3ccccc3c(NCCNCC(C)O)c2c1` (stereo not shown) [BKA-073], for which the Kd at human Bak protein (WT) amounted to 88.6 ± 5.73 nM. Further, the “Cyt c release from isolated mitochondria” value in experiment [1] (mitochondria from A549 Bax-/- cells) and in experiment [1] (mitochondria from A549 parental cells) was “induced Cyt c release” throughout. In the experiment with Bak-/- A549 xenografts, the tumor growth entry is on record as “no inhibitory effect”.

The values are drawn from article PMC8344021, “Discovery of Small Molecule Bak Activator for Lung Cancer Therapy” (Theranostics, 2021).
